Assay results from ChEMBL document CHEMBL1156421, “ApoA-I mimetic peptides with differing ability to inhibit atherosclerosis also exhibit differences in their interactions with membrane bilayers” (J Biol Chem, 2007).

Key:
[1] = Elimination half life in apoE deficient C57BL/6J mouse at 20 ug, ip; assay type: ADME, organism-based; conditions: in vivo
Mus musculus [2] = assay: Antiinflammatory activity in apoE deficient C57BL/6J mouse assessed as inhibition of atherosclerosis lesion area at 20 ug/day, ip administered for 4 weeks measured after 6 weeks; assay type: functional
Mus musculus [3] = assay: Cmax in apoE deficient C57BL/6J mouse at 20 ug, ip; assay type: ADME, organism-based; design: dose 20 ug, route intraperitoneal; conditions: in vivo, at 20 µg
[4] = Time to Cmax in apoE deficient C57BL/6J mouse at 20 ug, ip; assay type: ADME, organism-based; conditions: in vivo

| half-life [1] | Cmax (Mus musculus [3]) | Tmax [4] | Structure (SMILES) | Activity (Mus musculus [2]) |
| --- | --- | --- | --- | --- |
| 126 min | 12.29% | 28.8 min | CC(C)C[C@H](NC(=O)[C@H](Cc1c[nH]c2ccccc12)NC(=O)[C@H](CC(=O)O)NC([14CH3])=O)C(=O)N[C@@H](CCCCN)C(=O)N[C@@H](C)C(=O)N[C@@H](Cc1ccccc1)C(=O)N[C@@H](Cc1ccc(O)cc1)C(=O)N[C@@H](CC(=O)O)C(=O)N[C@@H](CCCCN)C(=O)N[C@H](C(=O)N[C@@H](C)C(=O)N[C@@H](CCC(=O)O)C(=O)N[C@@H](CCCCN)C(=O)N[C@@H](Cc1ccccc1)C(=O)N[C@@H](CCCCN)C(=O)N[C@@H](CCC(=O)O)C(=O)N[C@@H](C)C(=O)N[C@@H](Cc1ccccc1)C(N)=O)C(C)C | 20400 um2 |
| 32.4 min | 5.52% | 16.8 min | CC(C)C[C@H](NC(=O)[C@H](Cc1ccccc1)NC(=O)[C@H](CCC(=O)O)NC(=O)[C@H](CCCCN)NC(=O)[C@H](Cc1ccccc1)NC(=O)[C@H](C)NC(=O)[C@H](CCC(=O)O)NC(=O)[C@H](C)NC(=O)[C@H](Cc1ccccc1)NC(=O)[C@H](CCCCN)NC(=O)[C@H](CC(=O)O)NC(=O)[C@H](Cc1ccc(O)cc1)NC(=O)[C@@H](NC(=O)[C@H](C)NC(=O)[C@H](CCCCN)NC(=O)[C@H](Cc1c[nH]c2ccccc12)NC(=O)[C@H](CCCCN)NC(=O)[C@H](CC(=O)O)NC([14CH3])=O)C(C)C)C(N)=O | 15800 um2 |
